Values quoted from earlier work as cited in PubChem BioAssay AID1259409 (Chemical Carcinogenesis Research Information System (CCRIS), 2018).

Tested on: rodent chemically induced tumor inhibition, incidence and multiplicity
Experiment: CCRIS tumor inhibitor studies
Settings: Carcinogen: N-NITROBIS(2-OXOPROPYL)AMINE, 60559-38-4, Dose [Inhibitor]: 0.5 OR 1.0 MMOL/KG DIET DAILY STARTING 1 WK AFTER CARCINOGEN TREATMENT AND CONTINUING THROUGH THE END OF THE STUDY (STUD, Route [Inhibitor]: ORAL, Species: HAMSTER, Promoter: NONE USED

Question: With CC1=C(/C=C/C(C)=C/C=C/C(C)=C/C(=O)NCCO)C(C)(C)CCC1 as the compound, how does the “tumour outcome (control, treated, inhibition, significance)” value (Strain/Sex: SYRIAN/FEMALE, Target Tissue: Type of Lesion: LIVER: BENIGN TUMOR, Dose [Carcinogen]: 40 MG/KG BW ONCE) read?
Answer: 4/20 (20%), 17/35 (49%), -145%, not significant

Question: And the “tumour outcome (control, treated, inhibition, significance)” value (Strain/Sex: SYRIAN/FEMALE, Target Tissue: Type of Lesion: ND: TOTAL TUMOR, Dose [Carcinogen]: 10 MG/KG BW ONCE)?
Answer: 13/23 (56%), 21/37 (57%), -2%, not significant

Question: And the “tumour outcome (control, treated, inhibition, significance)” value (Strain/Sex: SYRIAN/FEMALE, Target Tissue: Type of Lesion: ND: TOTAL TUMOR, Dose [Carcinogen]: 40 MG/KG BW ONCE)?
Answer: 17/20 (85%), 33/34 (97%), -14%, not significant

Question: And the “tumour outcome (control, treated, inhibition, significance)” value (Strain/Sex: SYRIAN/FEMALE, Target Tissue: Type of Lesion: PANCREAS: DUCTULAR ADENOMA, Dose [Carcinogen]: 10 MG/KG BW ONCE)?
Answer: 5/23 (23%), 10/37 (27%), -17%, not significant

Question: What about the “tumour outcome (control, treated, inhibition, significance)” value (Strain/Sex: SYRIAN/FEMALE, Target Tissue: Type of Lesion: PANCREAS: DUCTULAR ADENOMA, Dose [Carcinogen]: 40 MG/KG BW ONCE) of the same compound?
Answer: 12/20 (60%), 27/33 (82%), -37%, not significant

Question: What about the “tumour outcome (control, treated, inhibition, significance)” value (Strain/Sex: SYRIAN/FEMALE, Target Tissue: Type of Lesion: PANCREAS: DUCTULAR CARCINOMA, Dose [Carcinogen]: 40 MG/KG BW ONCE) of the same compound?
Answer: 6/20 (30%), 8/33 (24%), 20%, not significant

Question: And the “tumour outcome (control, treated, inhibition, significance)” value (Strain/Sex: SYRIAN/MALE, Target Tissue: Type of Lesion: LIVER: BENIGN TUMOR, Dose [Carcinogen]: 40 MG/KG BW ONCE)?
Answer: 5/24 (21%), 26/42 (62%), -195%, p<0.05

Question: And the “tumour outcome (control, treated, inhibition, significance)” value (Strain/Sex: SYRIAN/MALE, Target Tissue: Type of Lesion: ND: TOTAL TUMOR, Dose [Carcinogen]: 10 MG/KG BW ONCE)?
Answer: 12/20 (54%), 31/39 (79%), -46%, not significant

Question: What about the “tumour outcome (control, treated, inhibition, significance)” value (Strain/Sex: SYRIAN/MALE, Target Tissue: Type of Lesion: ND: TOTAL TUMOR, Dose [Carcinogen]: 40 MG/KG BW ONCE) of the same compound?
Answer: 20/24 (83%), 41/42 (98%), -18%, not significant

Question: What about the “tumour outcome (control, treated, inhibition, significance)” value (Strain/Sex: SYRIAN/MALE, Target Tissue: Type of Lesion: PANCREAS: DUCTULAR ADENOMA, Dose [Carcinogen]: 10 MG/KG BW ONCE) of the same compound?
Answer: 3/22 (14%), 16/37 (43%), -207%, not significant

Question: What about the “tumour outcome (control, treated, inhibition, significance)” value (Strain/Sex: SYRIAN/MALE, Target Tissue: Type of Lesion: PANCREAS: DUCTULAR ADENOMA, Dose [Carcinogen]: 40 MG/KG BW ONCE) of the same compound?
Answer: 8/24 (33%), 34/42 (81%), -145%, not significant
